Measured values: PubChem BioAssay AID2060500 (Molecular Pharmacology Branch, DTP, NCI, 2025)
Each block holds one compound with its values, some of them ahead of it.

Test system: 596521-263-R-J1-PDC complex spheroids, viability % of control
Experiment: Anticancer human tumor 596521-263-R-J1-PDC patient-derived soft tissue sarcoma cell line growth inhibition [GQUAD]
Details: for IC50: curve of first compound; for viability, T/C: stronger effect = lower value
Summary of the method: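 Multi-cell-type spheroids of tumor cells with HUVEC and mesenchymal stem cells, treated with drug combinations. Concentrations descend in half-log steps from near clinical Cmax, or from 10 microM where Cmax is unknown; viability read-out.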

[1] = second compound 0.0316 µM, first compound 0.0316 µM
[2] = second compound 0.0316 µM, first compound 0.1 µM
[3] = second compound 0.0316 µM, first compound 0.316 µM
[4] = second compound 0.0316 µM, first compound 1 µM
[5] = second compound 0.0316 µM, first compound 3.16 µM
[6] = second compound 0.0316 µM, first compound 10 µM
[7] = second compound 0.1 µM, first compound 0.0316 µM
[8] = second compound 0.1 µM, first compound 0.1 µM
[9] = second compound 0.1 µM, first compound 0.316 µM
[10] = second compound 0.1 µM, first compound 1 µM
[11] = second compound 0.1 µM, first compound 3.16 µM
[12] = second compound 0.1 µM, first compound 10 µM
[13] = second compound 0.316 µM, first compound 0.0316 µM
[14] = second compound 0.316 µM, first compound 0.1 µM
[15] = second compound 0.316 µM, first compound 0.316 µM
[16] = second compound 0.316 µM, first compound 1 µM
[17] = second compound 0.316 µM, first compound 3.16 µM
[18] = second compound 0.316 µM, first compound 10 µM
[19] = second compound 1 µM, first compound 0.0316 µM
[20] = second compound 1 µM, first compound 0.1 µM
[21] = second compound 1 µM, first compound 0.316 µM
[22] = second compound 1 µM, first compound 1 µM
[23] = second compound 1 µM, first compound 3.16 µM
[24] = second compound 1 µM, first compound 10 µM
[25] = second compound 3.16 µM, first compound 0.0316 µM
[26] = second compound 3.16 µM, first compound 0.1 µM
[27] = second compound 3.16 µM, first compound 0.316 µM
[28] = second compound 3.16 µM, first compound 1 µM
[29] = second compound 3.16 µM, first compound 3.16 µM
[30] = second compound 3.16 µM, first compound 10 µM
[31] = second compound 10 µM, first compound 0.0316 µM
[32] = second compound 10 µM, first compound 0.1 µM
[33] = second compound 10 µM, first compound 0.316 µM
[34] = second compound 10 µM, first compound 1 µM
[35] = second compound 10 µM, first compound 3.16 µM
[36] = second compound 10 µM, first compound 10 µM
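Note: spheroids exposed to drugs for 7 days before viability reading.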
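Throughout, for viability, T/C: 100% = DMSO vehicle control viability.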

IC50 (second compound 0.0316 µM): 750 nM
IC50 (second compound 0.1 µM): 784 nM
IC50 (second compound 0.316 µM): 795 nM
IC50 (second compound 1 µM): 511 nM
IC50 (second compound 3.16 µM): 338 nM
IC50 (second compound 10 µM): < 31.6 nM
SMILES: COc1cccc2c1C(=O)c1c(O)c3c(c(O)c1C2=O)CC(O)(C(=O)CO)CC3OC1CC(N)C(O)C(C)O1 (stereo unspecified) + Cc1cnc(CNC(=O)c2c(=O)c3ccc(N4CCCN(C)CC4)nc3n3c2sc2ccccc23)cn1
viability, T/C [1]: 98.3%
viability, T/C [2]: 71.2%
viability, T/C [3]: 66.6%
viability, T/C [4]: 52.3%
viability, T/C [5]: 26.5%
viability, T/C [6]: 4.29%
viability, T/C [7]: 87.2%
viability, T/C [8]: 73.8%
viability, T/C [9]: 57.1%
viability, T/C [10]: 51.1%
viability, T/C [11]: 31%
viability, T/C [12]: 4.25%
viability, T/C [13]: 78.7%
viability, T/C [14]: 70.4%
viability, T/C [15]: 55.5%
viability, T/C [16]: 51.4%
viability, T/C [17]: 29%
viability, T/C [18]: 3.29%
viability, T/C [19]: 69.6%
viability, T/C [20]: 53%
viability, T/C [21]: 50.7%
viability, T/C [22]: 47.2%
viability, T/C [23]: 30.7%
viability, T/C [24]: 2.51%
viability, T/C [25]: 50.7%
viability, T/C [26]: 49%
viability, T/C [27]: 52.7%
viability, T/C [28]: 45.2%
viability, T/C [29]: 23.8%
viability, T/C [30]: 0.29%
viability, T/C [31]: 46.8%
viability, T/C [32]: 49.5%
viability, T/C [33]: 46.4%
viability, T/C [34]: 44.3%
viability, T/C [35]: 11.4%
viability, T/C [36]: 0.27%

IC50 (second compound 0.0316 µM): 78.7 nM
IC50 (second compound 0.1 µM): 308 nM
IC50 (second compound 0.316 µM): 68 nM
IC50 (second compound 1 µM): 77.2 nM
IC50 (second compound 3.16 µM): < 31.6 nM
IC50 (second compound 10 µM): < 31.6 nM
SMILES: Nc1ccn(C2OC(CO)C(O)C2(F)F)c(=O)n1 (stereo unspecified) + Cc1cnc(CNC(=O)c2c(=O)c3ccc(N4CCCN(C)CC4)nc3n3c2sc2ccccc23)cn1
viability, T/C [1]: 58.3%
viability, T/C [2]: 44.5%
viability, T/C [3]: 49.4%
viability, T/C [4]: 51%
viability, T/C [5]: 47.4%
viability, T/C [6]: 46.8%
viability, T/C [7]: 60.1%
viability, T/C [8]: 51%
viability, T/C [9]: 53.3%
viability, T/C [10]: 44.7%
viability, T/C [11]: 38.6%
viability, T/C [12]: 35.3%
viability, T/C [13]: 61.2%
viability, T/C [14]: 43.9%
viability, T/C [15]: 43.9%
viability, T/C [16]: 49.8%
viability, T/C [17]: 41.6%
viability, T/C [18]: 41.8%
viability, T/C [19]: 59.6%
viability, T/C [20]: 47.6%
viability, T/C [21]: 42%
viability, T/C [22]: 47.6%
viability, T/C [23]: 52.2%
viability, T/C [24]: 43%
viability, T/C [25]: 47.9%
viability, T/C [26]: 41.9%
viability, T/C [27]: 42.2%
viability, T/C [28]: 40.2%
viability, T/C [29]: 40.9%
viability, T/C [30]: 42.6%
viability, T/C [31]: 47%
viability, T/C [32]: 35.5%
viability, T/C [33]: 38.9%
viability, T/C [34]: 39.6%
viability, T/C [35]: 42.7%
viability, T/C [36]: 23.4%

IC50 (second compound 0.0316 µM): > 10000 nM
IC50 (second compound 0.1 µM): > 10000 nM
IC50 (second compound 0.316 µM): > 10000 nM
IC50 (second compound 1 µM): > 10000 nM
IC50 (second compound 3.16 µM): > 10000 nM
IC50 (second compound 10 µM): < 31.6 nM
SMILES: O=c1[nH]cc(F)c(=O)[nH]1 + Cc1cnc(CNC(=O)c2c(=O)c3ccc(N4CCCN(C)CC4)nc3n3c2sc2ccccc23)cn1
viability, T/C [1]: 109%
viability, T/C [2]: 112%
viability, T/C [3]: 100%
viability, T/C [4]: 99.7%
viability, T/C [5]: 111%
viability, T/C [6]: 84.7%
viability, T/C [7]: 100%
viability, T/C [8]: 84.9%
viability, T/C [9]: 89.4%
viability, T/C [10]: 88.5%
viability, T/C [11]: 104%
viability, T/C [12]: 87.4%
viability, T/C [13]: 78.9%
viability, T/C [14]: 82.8%
viability, T/C [15]: 69.5%
viability, T/C [16]: 72.5%
viability, T/C [17]: 82.7%
viability, T/C [18]: 76.7%
viability, T/C [19]: 68.2%
viability, T/C [20]: 66%
viability, T/C [21]: 71.3%
viability, T/C [22]: 72.2%
viability, T/C [23]: 76%
viability, T/C [24]: 69.9%
viability, T/C [25]: 54.8%
viability, T/C [26]: 59.9%
viability, T/C [27]: 51.3%
viability, T/C [28]: 49.8%
viability, T/C [29]: 63.2%
viability, T/C [30]: 51.4%
viability, T/C [31]: 49%
viability, T/C [32]: 49.6%
viability, T/C [33]: 49.2%
viability, T/C [34]: 49.4%
viability, T/C [35]: 54.7%
viability, T/C [36]: 47.6%
